Results: patent US20260176320A1, “MODULATORS OF G-PROTEIN COUPLED RECEPTORS” (priority 2018, published 2026)
pEC50: −log10 of the molar value. Read-outs that look alike come from different tables or passages of the source.

Experiments:
GLP-1R [1] = target: T1, GLP-1R (Homo sapiens, UniProt P43220); experiment: PathHunter β-arrestin assay; format: cell-based
Summary of the method: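 Cells (5,000/well) plated overnight, then exposed to a 22-point 2-fold agonist dilution series in medium with 0.2% BSA for 90 min at 37 °C, 5% CO2. PathHunter detection reagent added; after 3 h at room temperature in the dark, luminescence read.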

GIP-R = target: T2, GIP-R (Homo sapiens, UniProt P48546); experiment: HitHunter cAMP assay (GIP-R); format: cell-based; details: cAMP; for Emax: read-out: (Emax) GIP-R
T2 sequence (P48546 22-466): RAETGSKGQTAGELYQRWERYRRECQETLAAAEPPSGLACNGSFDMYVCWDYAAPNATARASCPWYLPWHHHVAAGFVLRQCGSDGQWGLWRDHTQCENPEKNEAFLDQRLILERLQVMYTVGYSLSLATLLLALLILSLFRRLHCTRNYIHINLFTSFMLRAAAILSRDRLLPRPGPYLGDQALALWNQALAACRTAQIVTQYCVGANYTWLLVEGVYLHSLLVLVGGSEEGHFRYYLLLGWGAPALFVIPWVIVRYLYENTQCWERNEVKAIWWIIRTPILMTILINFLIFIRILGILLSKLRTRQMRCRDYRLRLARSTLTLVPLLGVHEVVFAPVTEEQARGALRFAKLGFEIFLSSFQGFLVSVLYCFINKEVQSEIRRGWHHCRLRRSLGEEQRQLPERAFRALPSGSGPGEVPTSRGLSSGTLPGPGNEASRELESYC
Summary of the method: (§1)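 Suspension cells (10,000/well) in HBSS with 10 mM HEPES, 625 μM IBMX, 0.2% BSA exposed to 22-point 2-fold agonist series in duplicate for 30 min at room temperature. cAMP measured by antibody immunocompetition with overnight development, luminescence read-out.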

GLP-1R [2] = target: T1, GLP-1R; experiment: HitHunter cAMP assay (GLP-1R); format: cell-based; details: cAMP; for Emax: read-out: (Emax) GLP-1R
Summary of the method: as §1

mice = experiment: Glucose tolerance test (GTT); format: in vivo, mouse; details: 24 h GTT, s.c., percent of vehicle
Summary of the method: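 Compounds diluted in PBS from 1 mM DMSO stocks and given subcutaneously 15 min (5-6 h fast), 4 h (16 h overnight fast), 16 h or 24 h before intraperitoneal glucose (2 g/kg). Tail blood glucose read at 10–120 min post-glucose, at least 6 mice per time-point. Glucose AUC over time determined.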

[3] = PathHunter β-arrestin assay, read-out: β-arrestin activity EC50
[4] = Table 3, read-out: EC50 GIP-R/nM
[5] = Table 3A, read-out: EC50 GIP-R/nM
[6] = Table 3, read-out: EC50 GLP-1R/nM
[7] = Table 3A, read-out: EC50 GLP-1R/nM

T1 sequence (P43220 24-463): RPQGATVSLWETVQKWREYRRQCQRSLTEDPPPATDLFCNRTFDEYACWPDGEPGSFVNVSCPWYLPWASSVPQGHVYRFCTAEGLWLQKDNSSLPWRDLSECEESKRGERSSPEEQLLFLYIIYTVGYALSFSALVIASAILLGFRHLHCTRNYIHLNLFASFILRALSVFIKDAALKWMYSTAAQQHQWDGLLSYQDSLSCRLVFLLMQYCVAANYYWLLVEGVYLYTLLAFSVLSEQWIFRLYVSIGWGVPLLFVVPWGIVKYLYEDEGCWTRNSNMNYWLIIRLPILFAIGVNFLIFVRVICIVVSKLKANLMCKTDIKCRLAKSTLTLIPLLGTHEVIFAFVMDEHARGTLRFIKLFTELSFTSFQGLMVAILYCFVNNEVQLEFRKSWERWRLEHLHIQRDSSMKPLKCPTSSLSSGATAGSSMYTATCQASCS

| Structure (SMILES) | pEC50 (GLP-1R [1]; [3]) | Emax (GIP-R; Table 3) [%] | EC50 (GIP-R; [4]) [nM] | Emax (GIP-R; Table 3A) [%] | EC50 (GIP-R; [5]) [nM] | Emax (GLP-1R [2]; Table 3) [%] | EC50 (GLP-1R [2]; [6]) [nM] | Emax (GLP-1R [2]; Table 3A) [%] | EC50 (GLP-1R [2]; [7]) [nM] | AUC score (mice; dose range 2-5 nmol/kg) | pEC50 (GLP-1R [1]) | EC50 (GIP-R; EC50 GIP-R/nM, Table 3) [nM] | EC50 (GIP-R; EC50 GIP-R/nM, Table 3A) [nM] | EC50 (GLP-1R [2]; EC50 GLP-1R/nM, Table 3) [nM] | EC50 (GLP-1R [2]; EC50 GLP-1R/nM, Table 3A) [nM] | AUC score (mice; dose range 5.1-15 nmol/kg) |
| --- | --- | --- | --- | --- | --- | --- | --- | --- | --- | --- | --- | --- | --- | --- | --- | --- |
| CCCCCCCCCCCCCCCC(=O)N[C@@H](CCC(=O)NCCCC[C@H](NC(=O)[C@H](CO)NC(=O)[C@@H]1CCCN1C(=O)[C@@H]1CCCN1C(=O)[C@@H]1CCCN1C(=O)[C@H](C)NC(=O)CNC(=O)[C@H](CO)NC(=O)[C@H](CO)NC(=O)[C@@H]1CCCN1C(=O)CNC(=O)CNC(=O)[C@H](C)NC(=O)[C@H](CC(C)C)NC(=O)[C@H](CC(C)C)NC(=O)[C@H](Cc1c[nH]c2ccccc12)NC(=O)[C@H](CC(N)=O)NC(=O)[C@@H](NC(=O)[C@H](Cc1ccccc1)NC(=O)[C@H](CCC(=O)O)NC(=O)C(C)(C)NC(=O)[C@H](C)NC(=O)[C@H](C)NC(=O)[C@H](CCC(N)=O)NC(=O)[C@H](CCCCN)NC(=O)[C@H](CC(=O)O)NC(=O)[C@H](CC(C)C)NC(=O)[C@H](Cc1ccc(O)cc1)NC(=O)[C@@H](NC(=O)[C@H](CO)NC(=O)[C@H](Cc1ccc(O)cc1)NC(=O)[C@H](CC(=O)O)NC(=O)[C@H](CO)NC(=O)[C@@H](NC(=O)[C@H](Cc1ccccc1)NC(=O)[C@@H](NC(=O)CNC(=O)[C@H](CCC(=O)O)NC(=O)CSCC(=O)NCCN1C(=O)CCC1=O)[C@@H](C)O)[C@@H](C)O)[C@@H](C)CC)C(C)C)C(N)=O)C(=O)O [Compound 114] | < 6.00 | 42 to 63 | 1 to 10 | 42 to 63 | 1 to 10 | 94 to 103 | 0.1 to 10 | 94 to 103 | 0.1 to 10 | 3 (AUC score 3 = 51-75%) | – | – | – | – | – | – |
| CCCCCCCCCCCCCCCC(=O)N[C@@H](CCC(=O)NCCCC[C@H](NC(=O)[C@H](CO)NC(=O)[C@@H]1CCCN1C(=O)[C@@H]1CCCN1C(=O)[C@@H]1CCCN1C(=O)[C@H](C)NC(=O)CNC(=O)[C@H](CO)NC(=O)[C@H](CO)NC(=O)[C@@H]1CCCN1C(=O)CNC(=O)CNC(=O)[C@H](C)NC(=O)[C@H](CC(C)C)NC(=O)[C@H](CC(C)C)NC(=O)[C@H](Cc1c[nH]c2ccccc12)NC(=O)[C@H](CC(N)=O)NC(=O)[C@@H](NC(=O)[C@H](Cc1ccccc1)NC(=O)[C@H](CCC(=O)O)NC(=O)C(C)(C)NC(=O)[C@H](C)NC(=O)[C@H](C)NC(=O)[C@H](CCC(N)=O)NC(=O)[C@H](CCCCN)NC(=O)[C@H](CC(=O)O)NC(=O)[C@H](CC(C)C)NC(=O)[C@H](Cc1ccc(O)cc1)NC(=O)[C@@H](NC(=O)[C@H](CO)NC(=O)[C@H](Cc1ccc(O)cc1)NC(=O)[C@H](CC(=O)O)NC(=O)[C@H](CO)NC(=O)[C@@H](NC(=O)[C@H](Cc1ccccc1)NC(=O)[C@@H](NC(=O)CNC(=O)[C@H](CCC(=O)O)NC(=O)CSCC(=O)NCCN1C(=O)C[C@@H](O)C1=O)[C@@H](C)O)[C@@H](C)O)[C@@H](C)CC)C(C)C)C(N)=O)C(=O)O [Compound 79] | – | 77 | – | 77 | – | 102 | – | 102 | – | – | < 6.00 | 0.1 to 1 | 0.1 to 1 | 0.1 to 1 | 0.1 to 1 | 2 (AUC score 2 = 26-50%) |
| CCCCCCCCCCCCCCCC(=O)N[C@@H](CCC(=O)NCCCC[C@H](NC(=O)[C@H](CO)NC(=O)[C@@H]1CCCN1C(=O)[C@@H]1CCCN1C(=O)[C@@H]1CCCN1C(=O)[C@H](C)NC(=O)CNC(=O)[C@H](CO)NC(=O)[C@H](CO)NC(=O)[C@@H]1CCCN1C(=O)CNC(=O)CNC(=O)[C@H](C)NC(=O)[C@H](CC(C)C)NC(=O)[C@H](CC(C)C)NC(=O)[C@H](Cc1c[nH]c2ccccc12)NC(=O)[C@H](CC(N)=O)NC(=O)[C@@H](NC(=O)[C@H](Cc1ccccc1)NC(=O)[C@H](CCC(=O)O)NC(=O)C(C)(C)NC(=O)[C@H](C)NC(=O)[C@H](C)NC(=O)[C@H](CCC(N)=O)NC(=O)[C@H](CCCCN)NC(=O)[C@H](CC(=O)O)NC(=O)[C@H](CC(C)C)NC(=O)[C@H](Cc1ccc(O)cc1)NC(=O)[C@@H](NC(=O)[C@H](CO)NC(=O)[C@H](Cc1ccc(O)cc1)NC(=O)[C@H](CC(=O)O)NC(=O)[C@H](CO)NC(=O)[C@@H](NC(=O)[C@H](Cc1ccccc1)NC(=O)[C@@H](NC(=O)CNC(=O)[C@H](CCC(=O)O)NC(=O)CSCC(=O)NCCN1CCCCC1=O)[C@@H](C)O)[C@@H](C)O)[C@@H](C)CC)C(C)C)C(N)=O)C(=O)O [Compound 65] | < 6.00 | 42 | 1 to 10 | 42 | 1 to 10 | 96 | 0.1 to 1 | 96 | 0.1 to 1 | 2 (AUC score 2 = 26-50%) | – | – | – | – | – | – |
| CCCCCCCCCCCCCCCC(=O)N[C@@H](CCC(=O)NCCCC[C@H](NC(=O)[C@H](CO)NC(=O)[C@@H]1CCCN1C(=O)[C@@H]1CCCN1C(=O)[C@@H]1CCCN1C(=O)[C@H](C)NC(=O)CNC(=O)[C@H](CO)NC(=O)[C@H](CO)NC(=O)[C@@H]1CCCN1C(=O)CNC(=O)CNC(=O)[C@H](C)NC(=O)[C@H](CC(C)C)NC(=O)[C@H](CC(C)C)NC(=O)[C@H](Cc1c[nH]c2ccccc12)NC(=O)[C@H](CC(N)=O)NC(=O)[C@@H](NC(=O)[C@H](Cc1ccccc1)NC(=O)[C@H](CCC(=O)O)NC(=O)C(C)(C)NC(=O)[C@H](C)NC(=O)[C@H](C)NC(=O)[C@H](CCC(N)=O)NC(=O)[C@H](CCCCN)NC(=O)[C@H](CC(=O)O)NC(=O)[C@H](CC(C)C)NC(=O)[C@H](Cc1ccc(O)cc1)NC(=O)[C@@H](NC(=O)[C@H](CO)NC(=O)[C@H](Cc1ccc(O)cc1)NC(=O)[C@H](CC(=O)O)NC(=O)[C@H](CO)NC(=O)[C@@H](NC(=O)[C@H](Cc1ccccc1)NC(=O)[C@@H](NC(=O)CNC(=O)[C@H](CCC(=O)O)NC(=O)CSCC(=O)NCCN1CCC(C)C1=O)[C@@H](C)O)[C@@H](C)O)[C@@H](C)CC)C(C)C)C(N)=O)C(=O)O (single isomer, unassigned) [Compound 68] | < 6.00 | 87 | 0.1 to 1 | 87 | 0.1 to 1 | 109 | 0.1 to 1 | 109 | 0.1 to 1 | 2 (AUC score 2 = 26-50%) | – | – | – | – | – | – |
| CCCCCCCCCCCCCCCC(=O)N[C@@H](CCC(=O)NCCCC[C@H](NC(=O)[C@H](CO)NC(=O)[C@@H]1CCCN1C(=O)[C@@H]1CCCN1C(=O)[C@@H]1CCCN1C(=O)[C@H](C)NC(=O)CNC(=O)[C@H](CO)NC(=O)[C@H](CO)NC(=O)[C@@H]1CCCN1C(=O)CNC(=O)CNC(=O)[C@H](C)NC(=O)[C@H](CC(C)C)NC(=O)[C@H](CC(C)C)NC(=O)[C@H](Cc1c[nH]c2ccccc12)NC(=O)[C@H](CC(N)=O)NC(=O)[C@@H](NC(=O)[C@H](Cc1ccccc1)NC(=O)[C@H](CCC(=O)O)NC(=O)C(C)(C)NC(=O)[C@H](C)NC(=O)[C@H](C)NC(=O)[C@H](CCC(N)=O)NC(=O)[C@H](CCCCN)NC(=O)[C@H](CC(=O)O)NC(=O)[C@H](CC(C)C)NC(=O)[C@H](Cc1ccc(O)cc1)NC(=O)[C@@H](NC(=O)[C@H](CO)NC(=O)[C@H](Cc1ccc(O)cc1)NC(=O)[C@H](CC(=O)O)NC(=O)[C@H](CO)NC(=O)[C@@H](NC(=O)[C@H](Cc1ccccc1)NC(=O)[C@@H](NC(=O)CNC(=O)[C@H](CCC(=O)O)NC(=O)CSCC(=O)NCCN1CCOCC1=O)[C@@H](C)O)[C@@H](C)O)[C@@H](C)CC)C(C)C)C(N)=O)C(=O)O [Compound 32] | < 6.00 | 65 | 1 to 10 | 65 | 1 to 10 | 103 | < 0.1 | 103 | < 0.1 | 2 (AUC score 2 = 26-50%) | – | – | – | – | – | – |
